Among the test systems are SNB-19 CNS; U251 CNS; KM12 colon; DLD-1 colon; OVCAR-5 ovarian; NCI-H522 lung; HT29 colon; SN12C renal; SF-295 CNS; A549 NSCLC; RXF 393 renal; MDA-MB-231 breast; NCI-H460 lung; PC-3 prostate; MDA-MB-435; NCI/ADR-RES ovarian; OVCAR-3 ovarian; DU-145 prostate; NCI-H226 lung; HCT-116 colon.
Holding throughout (assay): NCI anticancer screen, dose series, 48 h

Each structure is given as a SMILES string.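 Compound exposure: 48 hours, 5 concentrations, 96-well plates. TGI is the concentration that stops growth completely.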

For the compound `COC(=O)CN(C)P(=O)(N1CC1)N1CC1`, the TGI with SNB-19 CNS, in the assay with U251 CNS, in the assay with KM12 colon, in the assay on DLD-1 colon, in the assay on OVCAR-5 ovarian and in the assay on NCI-H522 lung was above 100 µM throughout. Moreover, the TGI with HT29 colon, in the assay with SN12C renal, in the assay on SF-295 CNS, with A549 NSCLC and in the assay with RXF 393 renal was above 100 µM each time.
Consider `COc1cc2c3c(c4cc(OC)c(OC)cc4c2cc1OC)C(=O)C1CCC(=O)N1C3` (stereo unspecified), for which the TGI with MDA-MB-231 breast was above 100 µM; in the assay on NCI-H460 lung, above 100 µM; with PC-3 prostate, above 100 µM; with U251 CNS, above 100 µM; with KM12 colon, above 100 µM; in the assay on NCI-H522 lung it was 23.3 µM. Moreover, the TGI was above 100 µM in the assay on SF-295 CNS; above 100 µM in the assay on MDA-MB-435; above 100 µM with NCI/ADR-RES ovarian; above 100 µM in the assay with OVCAR-3 ovarian; above 100 µM in the assay on DU-145 prostate; 89.6 µM with RXF 393 renal.
On to `Cc1cccc(C(C)C)c1NC(=O)CC1Sc2ccccc2NC1=O` (stereo unspecified), for which the TGI in the assay on NCI-H460 lung, with NCI-H226 lung, in the assay with SNB-19 CNS, in the assay on U251 CNS, in the assay on KM12 colon and with DLD-1 colon was above 100 µM throughout. The TGI in the assay on OVCAR-5 ovarian, with NCI-H522 lung, in the assay on HT29 colon, in the assay with SN12C renal, with SF-295 CNS and with A549 NSCLC was above 100 µM in each case. In addition, the TGI in the assay on OVCAR-3 ovarian, in the assay on HCT-116 colon and in the assay on RXF 393 renal was above 100 µM in each case.
Consider `CC(=O)OC1(C#N)CC2OC1C1C2N=NN1C(=O)OC(C)(C)C` (stereo unspecified), for which the TGI in the assay with NCI-H460 lung, in the assay on DLD-1 colon, with OVCAR-5 ovarian, in the assay on NCI-H522 lung, in the assay on HT29 colon and in the assay on SN12C renal was above 100 µM in each case. Besides, the TGI with A549 NSCLC is above 100 µM; in the assay with OVCAR-3 ovarian, above 100 µM; in the assay with HCT-116 colon, 28.6 µM; in the assay with RXF 393 renal, above 100 µM.
As for `CCOC(=O)c1csc(NC(=O)CN2CCN(C)CC2)n1`, the TGI in the assay on MDA-MB-231 breast, in the assay with NCI-H460 lung, in the assay with NCI-H226 lung, in the assay on SNB-19 CNS, with PC-3 prostate and with U251 CNS was above 100 µM each time. Besides, the TGI in the assay with KM12 colon, in the assay on OVCAR-5 ovarian, in the assay with HT29 colon, in the assay with SF-295 CNS, in the assay on A549 NSCLC and in the assay on MDA-MB-435 was above 100 µM throughout. Also, the TGI in the assay on NCI/ADR-RES ovarian, in the assay on OVCAR-3 ovarian, with DU-145 prostate and with RXF 393 renal was above 100 µM in each case.
As for `O=C(CC(=O)c1ccccc1)CC(O)(c1ccccc1)c1ccccc1`, the TGI came out at 16.3 µM in the assay with NCI-H460 lung; 35.3 µM with SNB-19 CNS; 14.9 µM in the assay with U251 CNS; 21.9 µM in the assay on KM12 colon; 26.6 µM in the assay on DLD-1 colon; 25.6 µM with OVCAR-5 ovarian. Also, the TGI amounted to 13.6 µM in the assay on NCI-H522 lung; 23.7 µM in the assay with HT29 colon; 19.3 µM in the assay on SN12C renal; 17.1 µM in the assay on SF-295 CNS; 17.3 µM with OVCAR-3 ovarian; 16.6 µM in the assay on HCT-116 colon.

For the origin of these results see PubChem BioAssay (NCI).
